The nature of data set [1]: Acute toxicity in mice after oral administration. The data set is classed as in vivo. Conditions: mouse, in vivo. From the text:
(§1) The acute toxicity of compounds of this invention has been evaluated after oral administration in mice

For a further data set, the system named is mice. In words: Acute toxicity in mice after oral administration. Type of data set: in vivo.
Source text: as §1

The target of the next data set is T1, amino peptidase (Rattus norvegicus, UniProt F1M9V7).
T1 construct: as enzyme source it has been used the soluble fraction of point (a) above; from tissue; host or cells: rat striatum, soluble fraction
T1 sequence (F1M9V7 1-920): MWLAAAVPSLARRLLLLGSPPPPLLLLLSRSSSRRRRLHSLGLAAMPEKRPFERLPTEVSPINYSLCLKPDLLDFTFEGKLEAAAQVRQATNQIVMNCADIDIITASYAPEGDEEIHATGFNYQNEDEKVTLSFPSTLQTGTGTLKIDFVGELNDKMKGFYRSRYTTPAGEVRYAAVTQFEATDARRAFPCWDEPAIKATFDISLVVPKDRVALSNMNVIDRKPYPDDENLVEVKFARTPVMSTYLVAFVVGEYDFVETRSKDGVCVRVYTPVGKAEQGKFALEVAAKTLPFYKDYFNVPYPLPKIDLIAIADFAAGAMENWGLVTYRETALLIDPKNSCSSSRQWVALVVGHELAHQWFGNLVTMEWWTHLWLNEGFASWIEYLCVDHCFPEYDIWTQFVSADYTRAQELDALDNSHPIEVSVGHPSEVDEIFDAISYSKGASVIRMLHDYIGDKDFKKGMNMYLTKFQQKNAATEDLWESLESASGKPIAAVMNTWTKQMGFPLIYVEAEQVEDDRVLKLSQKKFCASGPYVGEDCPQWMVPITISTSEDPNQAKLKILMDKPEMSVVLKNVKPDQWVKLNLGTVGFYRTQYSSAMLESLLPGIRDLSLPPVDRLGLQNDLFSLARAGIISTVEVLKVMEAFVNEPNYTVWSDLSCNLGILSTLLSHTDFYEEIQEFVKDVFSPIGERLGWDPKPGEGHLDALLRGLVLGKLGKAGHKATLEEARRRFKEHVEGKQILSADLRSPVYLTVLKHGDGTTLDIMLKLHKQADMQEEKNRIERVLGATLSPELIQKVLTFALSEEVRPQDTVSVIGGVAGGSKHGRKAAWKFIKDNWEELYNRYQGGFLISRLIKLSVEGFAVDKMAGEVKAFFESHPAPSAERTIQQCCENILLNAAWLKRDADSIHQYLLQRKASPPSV
In words: Inhibition of amino peptidase, soluble fraction of rat striata, 3H-Tyr-Leucine-Enkephalin substrate. The data set is classed as biochemical, rats. The note with it: read-out: Drug concentration which inhibits 50% of the enzymatic activities (IC50(M)), Amino Peptidase. The text has this:
The evaluation of the inhibitory effect on enkephalinase and on aminopeptidase activity respectively has been made as follows: […]

In data set [2] the target is T2, enkephalinase (Rattus norvegicus, UniProt P07861).
T2 construct: enzymatic preparation extracted from the particulate fraction of striata of rats; from tissue; host or cells: rat striatum, particulate fraction purified on discontinuous sucrose gradient
T2 sequence (P07861 1-750): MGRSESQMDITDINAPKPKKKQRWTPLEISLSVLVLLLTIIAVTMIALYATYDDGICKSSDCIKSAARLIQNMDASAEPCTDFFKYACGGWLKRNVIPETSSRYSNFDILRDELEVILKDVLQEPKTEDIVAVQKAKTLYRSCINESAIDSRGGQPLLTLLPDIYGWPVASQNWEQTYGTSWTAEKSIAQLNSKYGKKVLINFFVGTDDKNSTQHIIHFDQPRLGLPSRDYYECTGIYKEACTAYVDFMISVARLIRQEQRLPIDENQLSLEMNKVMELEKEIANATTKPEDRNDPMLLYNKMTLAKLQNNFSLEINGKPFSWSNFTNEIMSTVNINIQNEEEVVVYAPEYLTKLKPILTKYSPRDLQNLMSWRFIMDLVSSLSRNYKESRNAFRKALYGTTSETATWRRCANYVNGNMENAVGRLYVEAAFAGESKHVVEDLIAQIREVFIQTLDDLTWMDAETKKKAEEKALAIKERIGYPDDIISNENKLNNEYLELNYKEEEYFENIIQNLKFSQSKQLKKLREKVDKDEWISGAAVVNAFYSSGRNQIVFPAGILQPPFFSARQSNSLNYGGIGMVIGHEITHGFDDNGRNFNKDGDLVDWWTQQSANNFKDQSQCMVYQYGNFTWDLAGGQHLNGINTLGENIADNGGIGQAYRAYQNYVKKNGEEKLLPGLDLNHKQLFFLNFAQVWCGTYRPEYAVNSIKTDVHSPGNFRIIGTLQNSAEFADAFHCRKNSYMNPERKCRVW
Briefly: Inhibition of enkephalinase, particulate fraction of rat striata, 3H-Tyr-Leucine-Enkephalin substrate. The data set is classed as biochemical, rats. The note with it: read-out: Drug concentration which inhibits 50% of the enzymatic activities (IC50(M)), Enkephalinase. From the text: The evaluation of the inhibitory effect on enkephalinase and on aminopeptidase activity respectively has been made as follows:
(a) enkephalinase: it has been used the enzymatic preparation extracted from the particulate fraction of striata of rats purified on discontinous gradient of sucrose (Blumberg et al., Life Sci., 28, (1981), 301); the evaluation of the enzymatic activity has been made using ^3 H-Tyr-Leucine-Enkephalin as substrate (Vogel and Alstein, FEBS Lett., 80, (1977), 332).

For data set [3], the target named is T3, enkephalinase (Mus musculus, UniProt Q61391).
T3 construct: potentiation of the analgesic effect induced in mice by Methionine-Enkephalin; from tissue; host or cells: endogenous enzyme in the brain of living mice (intracerebral administration)
T3 sequence (Q61391 1-750): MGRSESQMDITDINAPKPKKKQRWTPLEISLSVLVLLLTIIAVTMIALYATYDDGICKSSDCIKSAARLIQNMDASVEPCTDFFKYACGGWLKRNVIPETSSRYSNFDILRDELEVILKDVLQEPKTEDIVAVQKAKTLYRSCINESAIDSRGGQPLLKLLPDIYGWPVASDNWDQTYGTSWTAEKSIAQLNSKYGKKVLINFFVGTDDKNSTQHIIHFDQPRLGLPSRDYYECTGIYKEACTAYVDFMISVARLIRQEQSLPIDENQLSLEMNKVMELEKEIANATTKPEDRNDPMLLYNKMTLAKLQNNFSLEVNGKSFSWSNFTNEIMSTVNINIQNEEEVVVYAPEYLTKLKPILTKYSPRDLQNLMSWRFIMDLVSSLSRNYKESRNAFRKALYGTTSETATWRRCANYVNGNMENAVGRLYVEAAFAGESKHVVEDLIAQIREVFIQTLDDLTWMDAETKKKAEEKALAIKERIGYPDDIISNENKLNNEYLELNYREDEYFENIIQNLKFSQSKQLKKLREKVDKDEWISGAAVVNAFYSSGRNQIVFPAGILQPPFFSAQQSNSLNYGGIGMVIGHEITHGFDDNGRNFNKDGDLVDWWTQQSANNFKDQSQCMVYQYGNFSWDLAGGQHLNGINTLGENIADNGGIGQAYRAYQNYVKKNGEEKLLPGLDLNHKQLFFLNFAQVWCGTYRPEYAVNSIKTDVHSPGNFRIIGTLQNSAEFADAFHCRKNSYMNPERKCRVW
Briefly: Potentiation of Met-Enk analgesia in mice, hot plate test, intracerebral administration. The data set is classed as in vivo.

Where [4] appears, read: Met-Enk 50 μg/ic + compound 25 μg/ic.
[5] abbreviates: Met-Enk 50 μg/ic + compound 12,5 μg/ic.
The mark [6] stands for this setting: Met-Enk 50 μg/ic + compound 50 μg/ic.

A value given as a limit tells only on which side of the number the result lay.

Usually LD50 stands for the dose expected to kill half of the subjects tested. A low value points to a more toxic substance.

Compound `COC(=O)c1ncccc1NC(=O)C(C)CSC(C)=O` (stereo not shown) [Example 24, methyl 3-(2-acetylthiomethyl-propionamido)-picolinate] came in with an LD50 in data set [1] of 390 mg/kg.

“2-(2-acetylthiomethyl-propionamido)-picolinic acid [Example 26]”: the median lethal dose (LD50) in the data set on mice amounted to 421 mg/kg.

Consider `COC(=O)c1cncc(NC(=O)C(C)CS)c1` (stereo not shown) [Example 13, methyl 5-(2-mercaptomethyl-propionamido)-nicotinate], for which the values for the IC50 on amino peptidase and on enkephalinase [2] were over 1e-06 M and 2e-07 M, respectively.

As to `CC(C)C[C@H](NC(=O)[C@@H](O)[C@H](N)Cc1ccccc1)C(=O)O` [Bestatin, reference compound], the IC50 is 2e-07 M on amino peptidase and over 1e-06 M on enkephalinase [2].

For `CC(CS)C(=O)Nc1ccc(C(=O)O)nc1` (stereo not shown) [Example 23, 5-(2-mercaptomethyl-propionamido)-picolinic acid], at enkephalinase [3] (setting [4]), the “Latency Time X ± SE (sec)” value is on record as 26,1 ± 2,1 sec. Besides, the IC50 was over 1e-06 M on amino peptidase and 2e-07 M at enkephalinase [2].

For `CC(CS)C(=O)Nc1ccc(C(=O)O)cn1` (stereo not shown) [Example 8, 6-(2-mercaptomethyl-propionamido)-nicotinic acid], at enkephalinase [3] (setting [5]), the “Latency Time X ± SE (sec)” value was 19,6 ± 2,1 sec. Also, the results for the IC50 on amino peptidase and at enkephalinase [2] were over 1e-06 M and 5e-07 M, respectively.

With “Methionine-Enkephalin [Met--Enk, reference compound]”, the “Latency Time X ± SE (sec)” value at enkephalinase [3] (Met-Enk alone 50 μg/ic) is given as 14,7 ± 1,3 sec.

In the case of `C[C@H](CSC(=O)c1ccccc1)C(=O)Nc1cncc(C(=O)O)c1` [Example 18a, S(-)-5-(2-benzoylthiomethyl-propionamido)-nicotinic acid], the “Latency Time X ± SE (sec)” value on enkephalinase [3] (setting [6]) was 13,1 ± 0,9 sec. Also, the IC50 at amino peptidase is over 1e-06 M; on enkephalinase [2], 3e-07 M.

As for `COC(=O)c1cncc(N(C)C(=O)C(C)CSC(C)=O)c1` (stereo not shown) [Example 16, methyl 5-(2-acetylthiomethyl-N-methyl-propionamido)-nicotinate], the “Latency Time X ± SE (sec)” value at enkephalinase [3] (Met-Enk 50 μg/ic + compound 5 μg/ic) was 14,8 ± 1,1 sec. Moreover, the IC50 at amino peptidase is over 1e-06 M; at enkephalinase [2] it was 7e-07 M.

As for `COC(=O)c1ncccc1NC(=O)C(C)CS` (stereo not shown) [Example 25, methyl 3-(2-mercaptomethyl-propionamido)-picolinate], the LD50 in data set [1] was 329 mg/kg.

For `C[C@H](CS)C(=O)N1CCC[C@H]1C(=O)O` [Captopril, 1,-(3-mercapto-2-methyl-1-oxopropyl)-L-proline, reference compound], the IC50 on amino peptidase and on enkephalinase [2] was over 1e-06 M in each case.

For `CC(CS)C(=O)N(C)c1cncc(C(=O)O)c1` (stereo not shown) [Example 17, 5-(2-mercaptomethyl-N-methyl-propionamido)-nicotinic acid], the “Latency Time X ± SE (sec)” value on enkephalinase [3] (setting [6]) is reported as 13,8 ± 1,4 sec. In addition, the figures for the IC50 at amino peptidase and on enkephalinase [2] were over 1e-06 M and 1e-07 M, respectively.

With `CC(CS)C(=O)Nc1cncc(C(=O)O)c1` (stereo not shown) [Example 14, 5-(2-mercaptomethyl-propionamido)-nicotinic acid], the “Latency Time X ± SE (sec)” value on enkephalinase [3] (setting [4]) is reported as 27,7 ± 1,5 sec. The IC50 was over 1e-06 M at amino peptidase and 5e-08 M on enkephalinase [2].

As to `O=C(O)c1ccnc(NC(=O)C(CS)Cc2ccccc2)c1` (stereo not shown) [Example 28, 2-(2-mercaptomethyl-3-phenyl-propionamido)-isonicotinic acid], the “Latency Time X ± SE (sec)” value at enkephalinase [3] (setting [6]) is 27,0 ± 1,6 sec. Also, the IC50 was over 1e-06 M on amino peptidase and 1.8e-09 M at enkephalinase [2].

For `CC(CS)C(=O)Nc1cc(C(=O)O)ccn1` (stereo not shown) [Example 31, 2-(2-mercaptomethyl-propionamido)-isonicotinic acid], the “Latency Time X ± SE (sec)” value at enkephalinase [3] (setting [5]) is recorded as 15,4 ± 1,2 sec. Further, the IC50 on amino peptidase was over 1e-06 M; on enkephalinase [2], 5e-07 M.

(Values after US4528296A, “Derivatives of aminopyridinecarboxylic acids and pharmaceutical compositions containing them” (Simes, Societa Italiana Medicinalle Sintetici, priority 1982, dated 1985).)
